Results taken from patent US20010034319A1, “Photothermal vascular targeting with bioreductive agents” (priority 1999, published 2001).

Experiments:
[1] = system: KB cells (human pharyngeal SCC); experiment: POR with PDL limited to tumor area, KB tumors in nude mice (Example V); format: in vivo; details: for effect of treatment on mean tumor volume (analysis of variance): repeated two days later, FIG. 2
Protocol: (§1) KB cells (human pharyngeal SCC, American Type Culture Collection, Rockville, Md.) were maintained in culture medium consisting of 90% Minimal Essential medium (Gibco BRL, Grand Island, N.Y.) and 10% fetal bovine serum (Hyclone, Logan, Utah) with the addition of […] nonessential amino acid (Gibco BRL) and antibiotics (penicillin, streptomycin: Gibco BRL). The cells were grown as monolayers in Falcon T150 flasks (Becton Dickinson, Franklin Lakes, N.J.) in a 37° C. humidified incubator with 5% CO2.
(§2) Prior to inoculation, the cells were rinsed with PBS lacking calcium and magnesium (Gibco BRL), trypsinized (Gibco BRL), counted, centrifuged at 1000 rpm for 6 min., and resuspended in normal saline for a final concentration of 1,000,000 cells/ml.
(§3) Six- to seven-week-old nude mice (Charles River Labs, Wilmington, Mass.) were sterilely housed and fed ad libitum. Intradermal inoculation of 0.05 ml of cell suspension (50,000 cells) was performed under general anesthesia (ether) using a 30 gauge hypodermic needle. After 5 days, the majority of the tumors were visually apparent and palpable.
(§4) The effect of treatment on tumor volumes was determined using analysis of variance. Multiple comparisons were performed using the Student-Newman-Keuls (SNK) test. P values less than 0.05 are considered significant.
Sixteen mice, each with 4 tumor inoculations, were divided into 3 treatment groups and 1 control group. On day 6 following tumor inoculation, the treatment groups received (1) ip POR only (10 mg/kg), (2) ip saline and PDL limited to tumor area (585 nm, 10 J/cm^2, 300-500 μs; Model SPTL-1a, Candela Corporation, Wayland, Mass.), or (3) ip POR (10 mg/kg) and PDL limited to the tumor area (585 nm, 10 J/cm^2, 300-500 μs). The control group received ip saline injections only. PDL irradiation was performed 15 min. after administration of POR or vehicle, using a laser handpiece that produced a 5 mm diameter irradiated spot with a uniform energy distribution on the tumor surface. An aluminum plate with holes of various diameters was used to shield areas beyond the tumor border. […]

[2] = Body weight / systemic toxicity monitoring of POR in tumor-bearing mice (Example IV); details: POR 2.50-10.0 mg/kg ip; mice weighed days 0-13
Protocol: Fifteen mice, each with 4 tumor inoculations, were divided into 4 treatment groups and 1 control group. Five days after tumor inoculation, the 4 treatment groups received 2.50, 5.0, 7.5, and 10.0 mg/kg intraperitoneal (ip) injections of POR (Vion Pharmaceuticals, Inc., New Haven, Conn.) dissolved in sterile water. […] All mice were anesthetized during ip injections and tumor measurements. […] The mice were weighed at the time of each tumor measurement to monitor for any systemic toxicity of POR.

[3] = system: human squamous cancer cells; experiment: PDL and POR on human squamous cancer cell tumors in hamster cheek pouch (Example VIII); format: in vivo, hamsters; details: combined PDL (588 nm) and POR versus PDL only, FIG. 5
From the text: In this example, tumors were produced in the cheek pouches of hamsters by transplantation of human squamous cancer cells according to methods well known in the art. Hamsters were divided into four treatment groups: (1) control, (2) bioreductive agent porfiromycin only (POR), (3) 588 nm pulsed dye laser only (PDL), and (4) combined PDL and POR.

[4] = system: hypoxic cells; details: compared with mitomycin C; cited from earlier work
[5] = system: normal skin tissue; experiment: POR with PDL treatment of normal skin tissue, histologic evaluation (Example VII); format: in vivo, Syrian golden hamsters; details: PDL 15 min. after ip POR; biopsies 10 min. or 2 days after irradiation; hamster flank
Protocol: The effect on normal skin tissue of PDL irradiation with or without POR was determined using 6 adult Syrian golden hamsters. The hamsters were divided into two groups, and hair of each animal was shaved from an area of the flank. One group was irradiated with the PDL 15 min. after ip injection of POR, and the other group was irradiated without POR administration. Biopsies of treated sites were taken 10 min. or 2 days after irradiation. Specimens were fixed with formalin, embedded in paraffin, sectioned, and stained (H&E) for histologic evaluation.

[6] = system: KB cells (human pharyngeal SCC); experiment: POR with PDL extending beyond tumor area, KB tumors in nude mice (Example VI); format: in vivo
Protocol: as §1, §2, §3, §4
Twelve mice with 6 tumor inoculations were divided into 3 treatment groups and 1 control group. On day 5 following inoculation, the 4 groups were treated as in Example V except that the field of irradiation was extended to include a 2 to 3 mm periphery beyond the tumor edge. In addition, on the second treatment day, the fluence was raised from 10 to 15 J/cm^2. Tumor volume measurements were performed on days 0, 2, 4, 6, 8, 10, and 12 following the first treatment. Mice were weighed on day 0 and 6 following the first treatment. There were two anesthesia related deaths: one mouse from the control group and one mouse from the group receiving both PDL and POR died before day 10 and were therefore excluded from analysis.

[7] = system: KB cells (human pharyngeal SCC); experiment: Effect of POR alone on KB tumor volume in nude mice (Example IV); format: in vivo; details: POR alone 2.50, 5.0, 7.5, 10.0 mg/kg ip vs saline control; days 0-13; FIG. 1
Protocol: KB cells (human pharyngeal SCC, American Type Culture Collection, Rockville, Md.) were maintained in culture medium consisting of 90% Minimal Essential medium (Gibco BRL, Grand Island, N.Y.) and 10% fetal bovine serum (Hyclone, Logan, Utah) with the addition of 10 nM nonessential amino acid (Gibco BRL) and antibiotics (penicillin, streptomycin: Gibco BRL). The cells were grown as monolayers in Falcon T150 flasks (Becton Dickinson, Franklin Lakes, N.J.) in a 37° C. humidified incubator with 5% CO2.
The effect of treatment on tumor volumes was determined using analysis of variance. […]
Fifteen mice, each with 4 tumor inoculations, were divided into 4 treatment groups and 1 control group. […] The 3 orthogonal diameters of the tumors were measured at days 0, 2, 4, 6, 8, 10, and 13 following POR injection. […]

## CO[C@@]12[C@H](COC(N)=O)C3=C(C(=O)C(C)=C(N)C3=O)N1C[C@H]1[C@@H]2N1C (stereo partly drawn) [POR, porfiromycin]
[1]; ip POR 10 mg/kg and PDL limited to tumor area (585 nm, 10 J/cm^2)
  effect of treatment on mean tumor volume (analysis of variance): no significant effect of treatment at any point in time
[1]; ip POR 10 mg/kg and PDL limited to tumor area, gross and histological
  skin sloughing / epithelial necrosis in laser treatment groups: no gross evidence of skin sloughing or any histological evidence of epithelial necrosis
[1]; ip POR only 10 mg/kg, days 0-13
  effect of treatment on mean tumor volume (analysis of variance): no significant effect of treatment at any point in time
[2]
  effect of treatment on body weight / acute toxicity: no significant effect of treatment on body weight, or any other indication of acute toxicity
[3]
  tumor regression and remission: tumor regression and remission following laser vascular targeting is enhanced
[4]
  preferential toxicity for hypoxic cells: greater for POR than mitomycin C
[5]
  damage to normal skin after PDL irradiation (histologic and clinical): no microscopic or clinical evidence of epithelial necrosis or other damage to tissue structures beyond the blood vessels
[6]; POR 10 mg/kg ip with PDL including 2 to 3 mm margin (10 then 15 J/cm^2), all tumors, FIG. 3
  tumor volume versus controls (SNK test): differed from the controls from day 6 onward
[6]; POR alone 10 mg/kg ip, all tumors, FIG. 3
  tumor volume versus controls (SNK test): differed from the controls from day 6 onward
[6]; all tumors, PDL including tumor margin, FIG. 3
  tumor volume, PDL with POR versus PDL without POR: no significance between the effects of PDL irradiation with and without POR at any time
[6]; only the largest 33% of tumors on day 0, PDL including tumor margin, FIG. 4
  tumor volume, PDL with POR versus PDL without POR (SNK test): significant difference between PDL with and without POR at all days after day 6
[7]
  effect of treatment on mean tumor volume (analysis of variance): no significant effect of treatment at any point in time
